Results as given in EP0150892A2, “Substituted alkylidene imidazoles” (G.D. Searle & Co., priority 1984, dated 1985).

Biological target: T1, thromboxane synthetase (Cavia porcellus, UniProt H0UT36)
T1 construct: from tissue; host or cells: citrated whole blood (platelets) of albino male Dunkin-Hartley guinea pigs (printed 'Dunkin-Bartley') dosed orally
T1 sequence (H0UT36 1-533): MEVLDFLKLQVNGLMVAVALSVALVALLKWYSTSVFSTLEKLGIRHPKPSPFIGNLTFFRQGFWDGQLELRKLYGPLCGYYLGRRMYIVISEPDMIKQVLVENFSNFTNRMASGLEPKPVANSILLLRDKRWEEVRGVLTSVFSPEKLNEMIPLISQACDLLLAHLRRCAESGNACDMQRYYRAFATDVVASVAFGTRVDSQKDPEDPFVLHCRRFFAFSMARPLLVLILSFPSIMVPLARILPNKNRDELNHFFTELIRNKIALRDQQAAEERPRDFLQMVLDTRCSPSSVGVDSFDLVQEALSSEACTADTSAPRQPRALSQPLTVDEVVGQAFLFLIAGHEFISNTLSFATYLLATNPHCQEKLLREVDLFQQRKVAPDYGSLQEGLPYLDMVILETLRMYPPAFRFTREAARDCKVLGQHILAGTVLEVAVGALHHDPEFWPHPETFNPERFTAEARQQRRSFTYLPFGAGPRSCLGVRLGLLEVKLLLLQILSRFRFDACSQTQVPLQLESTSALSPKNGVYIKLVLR
Experiment: Whole blood aggregation and thromboxane formation in vivo: guinea pig (plasma TXB2 by radioimmunoassay after oral dosing)
Conditions: plasma TXB2 in collagen-stimulated citrated whole blood of guinea pigs dosed orally, versus vehicle controls; normalized to platelet count; dose not given

CCOC(=O)c1ccc(/C=C(/COCc2ccc(OC)cc2)Cn2ccnc2)c(OC)c1 (single isomer, unassigned) [11 (E-isomer), ethyl 4-[3-(1H-imidazol-1-yl)-2-[[(4-methoxyphenyl]methoxy]methyl]-lE-propenyl]-3-methoxybenzoate]
% INHIBITION: -36.0%
